Assay results published in patent US10106627B2, “Process for the preparation of polymeric biosurfactants” (priority 2014, dated 2018).

Assays:
[1] = DPPH free radical scavenging assay (cell free); type: biochemical; conditions: 35° C., 30 min
Experimental: (§1) The antioxidant activity of Microsan from Microbacterium sp. strain BS-2 and Brevisan from Brevibacillus sp. strain BS-207 in cell free system was measured by its inhibitory activity on the generation of DPPH free radicals, superoxide anions (O^2−), lipid peroxidation and erythrocyte hemolysis. The DPPH free radical scavenging assay was performed using 2,2-diphenyl-1-picrylhydrazyl (DPPH) free radical scavenging method [Ara. N. and Hasan, N. (2009) Res. J. Med. Medical Sci. 4, 107-110]. Different concentrations of Microsan and Brevisan were mixed individually with 150 μl of 160 μM methanolic solution of DPPH and incubated at 35° C. for 30 min in dark. The effective concentration (EC50) was calculated by measuring the absorbance of the samples at 517 nm. The superoxide anion scavenging was measured using phenazine methosulfate-nicotinamide adenine dinucleotide (PMS/NADH) method as previously described [Liu, F., Ooi, V. E. and Chang, S. T. (1997) Life Sci. 60, 763-771]. The lipid peroxidation assay was performed using the previously described method [Zhang, Q., Yu, P., Li, Z., Zhang, H., Xu, Z. and Li, P. (2003) J. Appl. Phycol. 15, 305-310] which is based on measuring the lipid peroxide decomposed product malondialdehyde (MDA). […] Samples were incubated at 37° C. for 30 min and the absorbance was measured at 540 nm. […]

[2] = Superoxide anion scavenging (PMS/NADH method); type: biochemical; conditions: cell free
Experimental: as §1

[3] = Lipid peroxidation assay (malondialdehyde); type: biochemical; conditions: cell free
Experimental: as §1

[4] = system: intracellular reactive oxygen species (ROS) in RAW 264.7 macrophages; test: LPS-induced intracellular ROS (DCFH-DA) in RAW 264.7 macrophages; type: cell-based, mouse; conditions: 20 μg ml^−1; LPS 100 ng/ml 24 h; LPS alone 78.97%
Experimental: The inhibition of intracellular reactive oxygen species (ROS) by Brevisan, Microsan and M-EPS-Au-NP in RAW 264.7 macrophages was measured using the oxygen free radical acceptor 2,7,-dichlorofluorescein diacetate (DCFH-DA) [Wang, H., and Joseph J. A. (1999) Free. […] The RAW-264.7 macrophages (2×10^6 cells/well in 24-well plate) were treated with Brevisan, Microsan and M-EPS-Au-NP at various concentrations and then stimulated with 100 ng/ml LPS for 24 h using N-acetylcysteine (NAC, 10 mM) as a ROS inhibitor. The DCF formed by intracellular ROS was measured at 485 nm excitation and 520 nm emission wavelengths using a Hitachi spectrofluorimeter. The experiments were run in triplicates and reported as the percentage of intracellular ROS formed.

[5] = Thermal degradation analysis (TGA/DSC); type: physicochemical
Experimental: The Microsan and Brevisan polymeric biosurfactants recovered and purified in Example 3 were subjected to structural characterization. The average molecular weight (Mw) of EPS was determined by gel permeation chromatography [Agilent 1100 Series HPLC system, TOSOH Corporation, Japan, equipped with a RID and a TSK G5000PWXL gel column (7.8×300 mm) and a TSK PWXL (6.0 mm×40 mm) guard column] using dextran standards ranging from 10680 to 578500 Da (Sigma, CAS No. 9004-54-0). The Fourier transform infrared spectra (FT-IR) were recorded on the Thermo-Nicolet Nexus 670 FT-IR spectrophotometer (Thermo Fisher Scientific Inc., Madison, Wis., U.S.A.) using KBr pellets containing 1% finely ground EPS samples and the spectra was collected at a resolution of 4 cm^−1 in the wavenumber region of 400-4,000 […]. The cross-polarization/magic angle spinning (CP/MAS) ^13C NMR experiments were performed on a Varian Unity Innova spectrometer operating at 400 MHz for ^1H and 100 MHz for ^13C at room temperature. […] Thermal degradation analyses of the EPS samples were measured using a DSC 821^c (Mettler Toledo GmbH, Switzerland) interfaced with Mettler Toledo Star SW (version 8.10) software. […] All of the XPS analyses were carried out in duplicates (two independent samples of each type of EPS analyzed at different time intervals). […]

β-D-glucuronyl-(1-2)-D-mannosyl-(1-4)-D-glucose [Microsan]
EC50 DPPH free radical scavenging [1]: 40.78 µg/mL | EC50 superoxide anions (O^2−) scavenging [2]: 24.48 µg/mL | EC50 lipid peroxidation inhibition [3]: 165.94 µg/mL | LPS-induced ROS levels after treatment [4]: 55.71% | thermal degradation temperature (TGA) [5]: 280 °C
